Consider 24 compounds from patent US20240199587A1, “HETEROCYCLIC COMPOUNDS” (Hoffmann-La Roche Inc., priority 2021, published 2024).

Usually IC50 stands for the concentration that gives 50% inhibition. Read a low IC50 as greater potency in that assay.

The assay deals with T1, MAGL (Homo sapiens, UniProt Q99685).
T1 sequence (Q99685 1-303): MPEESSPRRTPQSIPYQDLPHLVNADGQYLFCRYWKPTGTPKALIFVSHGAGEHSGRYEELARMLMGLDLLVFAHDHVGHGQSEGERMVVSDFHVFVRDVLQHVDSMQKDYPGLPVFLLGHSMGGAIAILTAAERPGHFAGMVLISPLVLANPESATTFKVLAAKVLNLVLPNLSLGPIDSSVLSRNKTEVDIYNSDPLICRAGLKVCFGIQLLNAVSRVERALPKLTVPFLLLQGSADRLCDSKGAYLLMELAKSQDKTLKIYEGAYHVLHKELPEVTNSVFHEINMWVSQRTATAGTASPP
Nature of the assay: 2-AG assay (MAGL inhibitory activity, hydrolysis of 2-arachidonoylglycerol to arachidonic acid followed by mass spectrometry). To be noted: 8 μM 2-arachidonoylglycerol, 15 min pre-incubation, 30 min incubation at RT, RapidFire MS readout. The class given is biochemical. Put shortly: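 Arachidonic acid released from 8 μM 2-arachidonoylglycerol was quantified by online SPE triple-quadrupole MS (negative ESI, 303.1→259.1), normalised to d8-arachidonic acid internal standard. Reaction ran 30 min at RT after 15 min RT compound pre-incubation with […] MAGL in TRIS/EDTA/Tween-20 buffer, 2.5% DMSO.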
In turn, `O=C(N1CC2(CC(n3cnc(C4(O)CC4)n3)C2)C1)N1CC2(CC[C@H](Cc3cccc(S(=O)(=O)C(F)(F)F)c3)C2)C1` [Example 361, [6-[3-(1-hydroxycyclopropyl)-1,2,4-triazol-1-yl]-2-azaspiro[3.3]heptan-2-yl]-[(6R)-6-[[3-(trifluoromethylsulfonyl)phenyl]methyl]-2-azaspiro[3.4]octan-2-yl]methanone] registered an IC50 of 0.21 nM. In the case of `O=C(N1CC2(CC(n3cnc(C4(O)CC4)n3)C2)C1)N1CC2(CC[C@@H](Cc3ccc(S(=O)(=O)C(F)(F)F)cc3)C2)C1` [Example 362, [6-[3-(1-hydroxycyclopropyl)-1,2,4-triazol-1-yl]-2-azaspiro[3.3]heptan-2-yl]-[(6S)-6-[[4-(trifluoromethylsulfonyl)phenyl]methyl]-2-azaspiro[3.4]octan-2-yl]methanone] it was 1.73 nM; in that of `O=C(N1CC2(CC(n3cnc(C4(O)CC4)n3)C2)C1)N1CC2(CC[C@H](Cc3ccc(S(=O)(=O)C(F)(F)F)cc3)C2)C1` [Example 363, [6-[3-(1-hydroxycyclopropyl)-1,2,4-triazol-1-yl]-2-azaspiro[3.3]heptan-2-yl]-[(6R)-6-[[4-(trifluoromethylsulfonyl)phenyl]methyl]-2-azaspiro[3.4]octan-2-yl]methanone], 1.35 nM.

`O=C(N1CC2(CC(Cc3ccc(S(=O)(=O)C4CC4)cc3)C2)C1)N1CC2(CC(n3cnc(C4(O)CC4)n3)C2)C1` [Example 364, [6-[(4-cyclopropylsulfonylphenyl)methyl]-2-azaspiro[3.3]heptan-2-yl]-[6-[3-(1-hydroxycyclopropyl)-1,2,4-triazol-1-yl]-2-azaspiro[3.3]heptan-2-yl]methanone] returned a half-inhibitory concentration (IC50) of 1.84 nM. Turning to `N#Cc1cc(CC2CC3(C2)CN(C(=O)N2CC4(CC(n5cnc(C6(O)CC6)n5)C4)C2)C3)ccc1C(F)(F)F` [Example 365, 5-[[2-[6-[3-(1-hydroxycyclopropyl)-1,2,4-triazol-1-yl]-2-azaspiro[3.3]heptane-2-carbonyl]-2-azaspiro[3.3]heptan-6-yl]methyl]-2-(trifluoromethyl) benzonitrile], the IC50 is 1.83 nM.

Take `CS(=O)(=O)c1cc(Cl)ccc1-c1ccc(C2CN(C(=O)N3CC4(CC(c5cncc(F)c5)C4)C3)C2)cc1` [Example 366, [3-[4-(4-chloro-2-methylsulfonyl-phenyl)phenyl]azetidin-1-yl]-[6-(5-fluoro-3-pyridyl)-2-azaspiro[3.3]heptan-2-yl]methanone]: the IC50 came to 14.2 nM.

For `O=C(N1CC2(CC(Cc3ncc(Cl)cc3F)C2)C1)N1CC2(CC(n3cnc(C4(O)CC4)n3)C2)C1` [Example 367, [6-[(5-chloro-3-fluoro-2-pyridyl)methyl]-2-azaspiro[3.3]heptan-2-yl]-[6-[3-(1-hydroxycyclopropyl)-1,2,4-triazol-1-yl]-2-azaspiro[3.3]heptan-2-yl]methanone], half-maximal inhibition (IC50) required 2.38 nM. Regarding `N#Cc1ccc(CC2CC3(C2)CN(C(=O)N2CC4(CC(n5cnc(C6(O)CC6)n5)C4)C2)C3)cc1C(F)(F)F` [Example 368, 4-[[2-[6-[3-(1-hydroxycyclopropyl)-1,2,4-triazol-1-yl]-2-azaspiro[3.3]heptane-2-carbonyl]-2-azaspiro[3.3]heptan-6-yl]methyl]-2-(trifluoromethyl) benzonitrile], the half-inhibitory concentration (IC50) stood at 1.57 nM.

`O=C(N1CC2(CC(n3cnc(C4(O)CC4)n3)C2)C1)N1CC2(CCN(Cc3ccc(S(=O)(=O)C(F)(F)F)cc3)C2)C1` [Example 369, [6-[3-(1-hydroxycyclopropyl)-1,2,4-triazol-1-yl]-2-azaspiro[3.3]heptan-2-yl]-[7-[[4-(trifluoromethylsulfonyl)phenyl]methyl]-2,7-diazaspiro[3.4]octan-2-yl]methanone] registered a half-inhibitory concentration (IC50) of 49.3 nM.

`N#Cc1cc(CC2CC3(C2)CN(C(=O)N2CC4(CC(n5cnc(C6(O)CC6)n5)C4)C2)C3)cc(C(F)(F)F)c1` [Example 370, 3-[[2-[6-[3-(1-hydroxycyclopropyl)-1,2,4-triazol-1-yl]-2-azaspiro[3.3]heptane-2-carbonyl]-2-azaspiro[3.3]heptan-6-yl]methyl]-5-(trifluoromethyl) benzonitrile]: the concentration for half-maximal inhibition (IC50) was 0.9 nM. Regarding `CS(=O)(=O)c1cc(Cl)ccc1-c1ccc(C2CN(C(=O)N3CC4(CC(c5ccc(C(F)(F)F)nc5)C4)C3)C2)cc1` [Example 371, [3-[4-(4-chloro-2-methylsulfonyl-phenyl)phenyl]azetidin-1-yl]-[6-[6-(trifluoromethyl)-3-pyridyl]-2-azaspiro[3.3]heptan-2-yl]methanone], the IC50 was determined as 9.23 nM. In the case of `O=C(N1CC(c2ccc(NCC3(C(F)(F)F)CC3)nc2)C1)N1CC2(CC(n3cnc(C4(O)CC4)n3)C2)C1` [Example 372, [6-[3-(1-hydroxycyclopropyl)-1,2,4-triazol-1-yl]-2-azaspiro[3.3]heptan-2-yl]-[3-[6-[[1-(trifluoromethyl)cyclopropyl]methylamino]-3-pyridyl]azetidin-1-yl]methanone] it was 1.12 nM; in that of `O=C(N1CC(c2ccc(N3CC[C@@H](C(F)(F)F)C3)nc2)C1)N1CC2(CC(n3cnc(C4(O)CC4)n3)C2)C1` [Example 373, [6-[3-(1-hydroxycyclopropyl)-1,2,4-triazol-1-yl]-2-azaspiro[3.3]heptan-2-yl]-[3-[6-[(3R)-3-(trifluoromethyl)pyrrolidin-1-yl]-3-pyridyl]azetidin-1-yl]methanone], 3.24 nM.

`CS(=N)(=O)c1cccc(CC2CC3(C2)CN(C(=O)N2CC4(CC(n5cnc(C6(O)CC6)n5)C4)C2)C3)c1` (stereo not drawn) [Example 374, [6-[3-(1-hydroxycyclopropyl)-1,2,4-triazol-1-yl]-2-azaspiro[3.3]heptan-2-yl]-[6-[[3-(methylsulfonimidoyl)phenyl]methyl]-2-azaspiro[3.3]heptan-2-yl]methanone]: the 50% inhibitory concentration (IC50) was 52.9 nM. In the case of `CP(C)(=O)c1ccc(CC2CC3(C2)CN(C(=O)N2CC4(CC(n5cnc(C(F)(F)F)n5)C4)C2)C3)cc1` [Example 375, [6-[(4-dimethyl-phosphorylphenyl)methyl]-2-azaspiro[3.3]heptan-2-yl]-[6-[3-(trifluoromethyl)-1,2,4-triazol-1-yl]-2-azaspiro[3.3]heptan-2-yl]methanone], half-maximal inhibition (IC50) required 12.7 nM. Compound `CP(C)(=O)c1ccc(CC2CC3(C2)CN(C(=O)N2CC4(CC(n5cnc(C6CC6)n5)C4)C2)C3)cc1` [Example 376, [6-(3-cyclopropyl-1,2,4-triazol-1-yl)-2-azaspiro[3.3]heptan-2-yl]-[6-[(4-dimethyl-phosphorylphenyl)methyl]-2-azaspiro[3.3]heptan-2-yl]methanone] registered an IC50 of 4.07 nM.

Compound `CP(C)(=O)c1ccc(CC2CC3(C2)CN(C(=O)N2CC4(CC(n5cnc(C(F)(F)F)n5)C4)C2)C3)nc1` [Example 377, [6-[(5-dimethylphosphoryl-2-pyridyl)methyl]-2-azaspiro[3.3]heptan-2-yl]-[6-[3-(trifluoromethyl)-1,2,4-triazol-1-yl]-2-azaspiro[3.3]heptan-2-yl]methanone] registered a half-maximal inhibitory concentration (IC50) of 392 nM. In the case of `CP(C)(=O)c1ccc(CC2CC3(C2)CN(C(=O)N2CC4(CC(n5cnc(C6CC6)n5)C4)C2)C3)nc1` [Example 378, [6-(3-cyclopropyl-1,2,4-triazol-1-yl)-2-azaspiro[3.3]heptan-2-yl]-[6-[(5-dimethylphosphoryl-2-pyridyl)methyl]-2-azaspiro[3.3]heptan-2-yl]methanone] it was 106 nM; in that of `CP(C)(=O)c1ccc(CN2CC3(C2)CN(C(=O)N2CC4(CC(n5cnc(C(F)(F)F)n5)C4)C2)C3)cc1` [Example 379, [6-[(4-dimethyl-phosphorylphenyl)methyl]-2,6-diazaspiro[3.3]heptan-2-yl]-[6-[3-(trifluoromethyl)-1,2,4-triazol-1-yl]-2-azaspiro[3.3]heptan-2-yl]methanone], 3350 nM. In the case of `O=C(N1CC2(CC(Cc3ccc(F)cc3F)C2)C1)N1CC2(CC(c3cncc(F)c3)C2)C1` [Example 380, [6-[(2,4-difluorophenyl)methyl]-2-azaspiro[3.3]heptan-2-yl]-[6-(5-fluoro-3-pyridyl)-2-azaspiro[3.3]heptan-2-yl]methanone] it was 0.57 nM.

Compound `O=C(N1CC2(CC(Cc3ccc(OC(F)(F)F)nc3)C2)C1)N1CC2(CC(n3cnc(C4(O)CC4)n3)C2)C1` [Example 381] showed a half-maximal inhibitory concentration (IC50) of 0.44 nM. `O=C(N1CC(C23CC(Cc4ccc(C(F)(F)F)nc4)(C2)C3)C1)N1CC2(CC(n3cnc(C4(O)CC4)n3)C2)C1` [Example 382, [6-[3-(1-hydroxycyclopropyl)-1,2,4-triazol-1-yl]-2-azaspiro[3.3]heptan-2-yl]-[3-[3-[[6-(trifluoromethyl)-3-pyridyl]methyl]-1-bicyclo[1.1.1]pentanyl]azetidin-1-yl]methanone] yielded an IC50 of 52.4 nM. In the case of `O=C(N1CC2(CC(Cc3ccc4[nH]ncc4n3)C2)C1)N1CC2(CC(n3cnc(C4(O)CC4)n3)C2)C1` [Example 383, [6-[3-(1-hydroxycyclopropyl)-1,2,4-triazol-1-yl]-2-azaspiro[3.3]heptan-2-yl]-[6-(1H-pyrazolo[4,3-b]pyridin-5-ylmethyl)-2-azaspiro[3.3]heptan-2-yl]methanone] it was 39.8 nM; in that of `O=C(N1CC(C23CC(Cc4nnc(C5CC5)[nH]4)(C2)C3)C1)N1CC2(CC(n3cnc(C4CC4)n3)C2)C1` [Example 384, [6-(3-cyclopropyl-1,2,4-triazol-1-yl)-2-azaspiro[3.3]heptan-2-yl]-[3-[3-[(5-cyclopropyl-4H-1,2,4-triazol-3-yl)methyl]-1-bicyclo[1.1.1]pentanyl]azetidin-1-yl]methanone], 4.88 nM.
